# Measured values reported in patent publication US20260132129A1 (Genesis Therapeutics, Inc., priority 2022, published 2026).
# Molecular target: T1, PI3Kα H1047R (T47D cells) (Homo sapiens, UniProt P42336, H1047R)
# T1 construct: endogenous in cells; host or cells: T47D cells
# Assay: PI3Kα cellular assay: pAKT HTRF in T47D cells after EGF stimulation
# Format: cell-based
# Settings: for IC50: T47D cells (PI3Kα H1047R), pAKT S473 HTRF, EGF stimulation; for T47D pAKT S473 HTRF IC50 (H1047R): T47D (H1047R) selectivity over SKBR3 (WT): selectivity of T47D (H1047R) over SKBR3 (WT) pAKT IC50
# In short: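 T47D cells (PIK3CA H1047R) serum-starved 16 h, then treated 1 h at 37 °C with compound (10,000 nM top, 3-fold steps to 0.5 nM). After 10 min stimulation with 20 ng/mL EGF, cells were lysed and pAKT measured by HTRF.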
# T1 sequence (P42336 whole entry H1047R): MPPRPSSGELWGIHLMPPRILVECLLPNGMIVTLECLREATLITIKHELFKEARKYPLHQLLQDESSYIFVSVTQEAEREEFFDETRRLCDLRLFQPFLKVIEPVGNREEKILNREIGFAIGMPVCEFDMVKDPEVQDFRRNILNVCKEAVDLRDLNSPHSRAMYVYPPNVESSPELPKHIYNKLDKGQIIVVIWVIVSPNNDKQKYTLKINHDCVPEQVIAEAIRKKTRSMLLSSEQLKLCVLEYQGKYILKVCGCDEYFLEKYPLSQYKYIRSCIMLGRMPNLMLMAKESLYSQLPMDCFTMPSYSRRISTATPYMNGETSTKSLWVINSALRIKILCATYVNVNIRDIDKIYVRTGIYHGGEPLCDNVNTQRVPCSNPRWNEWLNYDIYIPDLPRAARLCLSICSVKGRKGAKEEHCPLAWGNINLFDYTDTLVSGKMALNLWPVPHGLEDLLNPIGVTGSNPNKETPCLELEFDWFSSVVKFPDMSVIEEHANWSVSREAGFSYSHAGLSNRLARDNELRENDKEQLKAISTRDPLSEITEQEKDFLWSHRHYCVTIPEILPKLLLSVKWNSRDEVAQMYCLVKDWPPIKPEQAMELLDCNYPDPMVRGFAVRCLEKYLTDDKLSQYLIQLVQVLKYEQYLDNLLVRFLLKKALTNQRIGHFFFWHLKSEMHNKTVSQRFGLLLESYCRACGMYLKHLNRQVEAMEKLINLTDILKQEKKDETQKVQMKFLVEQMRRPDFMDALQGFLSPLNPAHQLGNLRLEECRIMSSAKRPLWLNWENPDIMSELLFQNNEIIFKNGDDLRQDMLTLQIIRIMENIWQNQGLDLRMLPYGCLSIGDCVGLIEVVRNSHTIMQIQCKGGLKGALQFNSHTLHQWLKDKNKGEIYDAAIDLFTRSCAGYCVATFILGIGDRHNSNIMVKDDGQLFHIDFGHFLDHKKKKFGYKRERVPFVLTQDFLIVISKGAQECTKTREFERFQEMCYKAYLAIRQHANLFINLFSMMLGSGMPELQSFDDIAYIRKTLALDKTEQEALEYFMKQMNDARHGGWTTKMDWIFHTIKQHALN
# T1 sequence (P27986 whole entry partner): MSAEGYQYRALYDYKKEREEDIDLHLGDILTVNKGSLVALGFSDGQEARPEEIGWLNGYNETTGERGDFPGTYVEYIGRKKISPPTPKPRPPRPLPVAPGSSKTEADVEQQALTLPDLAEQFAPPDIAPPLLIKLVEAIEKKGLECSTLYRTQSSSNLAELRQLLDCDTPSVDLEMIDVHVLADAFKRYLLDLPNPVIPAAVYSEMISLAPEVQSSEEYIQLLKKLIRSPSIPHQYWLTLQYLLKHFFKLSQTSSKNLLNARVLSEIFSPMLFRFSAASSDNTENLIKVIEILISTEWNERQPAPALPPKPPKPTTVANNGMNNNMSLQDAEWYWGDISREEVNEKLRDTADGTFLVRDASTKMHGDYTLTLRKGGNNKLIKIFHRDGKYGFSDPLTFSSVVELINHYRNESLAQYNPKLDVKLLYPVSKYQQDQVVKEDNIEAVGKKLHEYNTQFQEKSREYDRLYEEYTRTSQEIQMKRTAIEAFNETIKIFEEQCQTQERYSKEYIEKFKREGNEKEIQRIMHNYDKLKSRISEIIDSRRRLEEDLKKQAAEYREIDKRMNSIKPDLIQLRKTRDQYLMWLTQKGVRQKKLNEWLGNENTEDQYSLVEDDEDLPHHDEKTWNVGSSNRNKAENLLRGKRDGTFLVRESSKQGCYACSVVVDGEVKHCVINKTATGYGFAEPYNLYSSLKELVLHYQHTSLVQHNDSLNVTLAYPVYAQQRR
SMILES,IC50 [nM],T47D pAKT S473 HTRF IC50 (H1047R): T47D (H1047R) selectivity over SKBR3 (WT)
Cc1cc([C@H](C)Nc2ccccc2C(=O)O)c2nc(N3CCC(C)(C)CC3)cc(=O)n2c1 [Compound 728],> 2000,C (C denotes ≤5-fold)
Cc1cc(C(C)Nc2ccccc2S(N)(=O)=O)c2nc(N3C[C@@H](C)O[C@@H](C)C3)cc(=O)n2c1 (some centres unmarked) [Compound 729],100 to 500,A (A denotes >20-fold)
Cc1cc([C@H](C)Nc2ccccc2S(N)(=O)=O)c2nc(N3C[C@@H](C)O[C@@H](C)C3)cc(=O)n2c1 [Compound 731],> 2000,C (C denotes ≤5-fold)
Cc1cc([C@@H](C)Nc2ccccc2C(=O)O)c2nc(-c3cc4c(N)nn(C)c4cc3C)c(C)c(=O)n2c1 [Compound 732],–,C (C denotes ≤5-fold)
Cc1cc([C@H](C)Nc2ccccc2C(=O)O)c2nc(-c3cc4c(N)nn(C)c4cc3C)c(C)c(=O)n2c1 [Compound 733],–,C (C denotes ≤5-fold)
Cc1cc(C(C)CNc2ccccc2C(=O)O)c2nc(N3CCOCC3)cc(=O)n2c1 (centres unmarked) [Compound 735],–,C (C denotes ≤5-fold)
Cc1cc([C@H](C)Nc2ccccc2C(=O)O)c2nc(-c3ccc4c(ccn4CC(N)=O)c3)cc(=O)n2c1 [Compound 741],–,C (C denotes ≤5-fold)
Cc1cc(C(C)Nc2cccc3[nH]nnc23)c2nc(N3CCOCC3)cc(=O)n2c1 (centres unmarked) [Compound 743],–,A (A denotes >20-fold)
Cc1cc([C@@H](C)Nc2cccc3[nH]nnc23)c2nc(N3CCOCC3)cc(=O)n2c1 [Compound 744],–,B (B denotes 20-fold≥value>5-fold)
Cc1cc([C@H](C)Nc2cccc3[nH]nnc23)c2nc(N3CCOCC3)cc(=O)n2c1 [Compound 745],–,C (C denotes ≤5-fold)
Cc1cc(C(C)Nc2ccccc2C(=O)O)c2nc(-c3cc(C(N)=O)c4[nH]ccc4c3)cc(=O)n2c1 (centres unmarked) [Compound 753],500 to 2000,B (B denotes 20-fold≥value>5-fold)
Cc1cc([C@H](C)Nc2ccccc2C(=O)O)c2nc(-c3cc(C(N)=O)c4[nH]ccc4c3)cc(=O)n2c1 [Compound 754],> 2000,C (C denotes ≤5-fold)
Cc1cc([C@@H](C)Nc2ccccc2C(=O)O)c2nc(C3CCN(S(N)(=O)=O)CC3)cc(=O)n2c1 [Compound 755],> 2000,C (C denotes ≤5-fold)
Cc1cc([C@H](C)Nc2ccccc2C(=O)O)c2nc(C3CCN(S(N)(=O)=O)CC3)cc(=O)n2c1 [Compound 756],> 2000,C (C denotes ≤5-fold)
Cc1cc(C(C)NC2=C(C(=O)O)C=CCC2)c2nc(-c3ccc(CC4CCN(C(=O)C5CC5)CC4)nc3)cc(=O)n2c1 (centres unmarked) [Compound 759],–,C (C denotes ≤5-fold)
Cc1cc([C@@H](C)Nc2ccccc2C(=O)O)c2nc(-c3cnc4c(c3)c(C)nn4C)c(C)c(=O)n2c1 [Compound 762],< 100,A (A denotes >20-fold)
Cc1cc([C@H](C)Nc2ccccc2C(=O)O)c2nc(-c3cnc4c(c3)c(C)nn4C)c(C)c(=O)n2c1 [Compound 763],500 to 2000,B (B denotes 20-fold≥value>5-fold)
Cc1cc(C(C)Nc2ccccc2C(=O)O)c2nc(-n3cc(C(N)=O)c4ccccc43)cc(=O)n2c1 (centres unmarked) [Compound 771],500 to 2000,B (B denotes 20-fold≥value>5-fold)
Cc1cc([C@H](C)Nc2ccccc2C(=O)O)c2nc(-n3cc(C(N)=O)c4ccccc43)cc(=O)n2c1 [Compound 772],> 2000,C (C denotes ≤5-fold)
Cc1cc(C(C)Nc2ccccc2C(=O)O)c2nc(-n3cnc4cc(O)ccc43)cc(=O)n2c1 (centres unmarked) [Compound 773],500 to 2000,B (B denotes 20-fold≥value>5-fold)
Cc1cc([C@H](C)Nc2ccccc2C(=O)O)c2nc(-n3cnc4cc(O)ccc43)cc(=O)n2c1 [Compound 774],> 2000,C (C denotes ≤5-fold)
CC1=CC2C(=O)C=C([C@H]3CC[C@H](CC4CC[C@H](O)C4)CC3)N=C2C([C@H](C)Nc2ccccc2C(=O)O)=C1 (some centres unmarked) [Compound 778],> 2000,C (C denotes ≤5-fold)
Cc1cc(C(C)Nc2ccccc2C(=O)O)c2nc(N3C[C@H](C)C[C@H](C(F)F)C3)cc(=O)n2c1 (some centres unmarked) [Compound 781],100 to 500,A (A denotes >20-fold)
Cc1cc(C(C)Nc2cccc3c2=NCN=3)c2nc(N3CCOCC3)cc(=O)n2c1 (centres unmarked) [Compound 782],> 2000,C (C denotes ≤5-fold)
Cc1cc([C@@H](C)NC2=C(C(=O)O)C=CCC2)c2nc(-c3ccc(CC4CCN(C(=O)C5CC5)CC4)nc3)cc(=O)n2c1 [Compound 783],> 2000,C (C denotes ≤5-fold)
Cc1cc([C@H](C)NC2=C(C(=O)O)C=CCC2)c2nc(-c3ccc(CC4CCN(C(=O)C5CC5)CC4)nc3)cc(=O)n2c1 [Compound 784],> 2000,C (C denotes ≤5-fold)

# Further lines, results first:
IC50 [nM],T47D pAKT S473 HTRF IC50 (H1047R): T47D (H1047R) selectivity over SKBR3 (WT),SMILES
100 to 500,A (A denotes >20-fold),Cc1cc(C(C)Nc2ccccc2C(=O)O)c2nc(-c3ccc4c(c3)c(C3CC3)nn4C)cc(=O)n2c1 (centres unmarked) [Compound 736]
100 to 500,A (A denotes >20-fold),Cc1cc([C@@H](C)Nc2ccccc2C(=O)O)c2nc(-c3ccc4c(c3)c(C(F)(F)F)nn4C)cc(=O)n2c1 [Compound 737]
> 2000,C (C denotes ≤5-fold),Cc1cc([C@H](C)Nc2ccccc2C(=O)O)c2nc(-c3ccc4c(c3)c(C(F)(F)F)nn4C)cc(=O)n2c1 [Compound 738]
< 100,A (A denotes >20-fold),Cc1cc([C@@H](C)Nc2ccccc2C(=O)O)c2nc(-c3ccc4c(c3)c(C3CC3)nn4C)cc(=O)n2c1 [Compound 748]
> 2000,C (C denotes ≤5-fold),Cc1cc([C@H](C)Nc2ccccc2C(=O)O)c2nc(-c3ccc4c(c3)c(C3CC3)nn4C)cc(=O)n2c1 [Compound 749]
–,C (C denotes ≤5-fold),CC1=NC(C)c2cc(-c3cc(=O)n4cc(C)cc([C@@H](C)Nc5ccccc5C(=O)O)c4n3)ccc21 (some centres unmarked) [Compound 752]
> 2000,C (C denotes ≤5-fold),Cc1cc(C(C)Nc2ccccc2C(=O)O)c2nc(-c3ccc4c(c3)C(C)NN4C)cc(=O)n2c1 (centres unmarked) [Compound 757]
100 to 500,A (A denotes >20-fold),CNc1nn(C)c2ccc(-c3cc(=O)n4cc(C)cc(C(C)Nc5ccccc5C(=O)O)c4n3)cc12 (centres unmarked) [Compound 758]
–,A (A denotes >20-fold),Cc1cc([C@H](C)Nc2ccccc2C(=O)O)c2nc(-c3ccc4c(c3)CC(=O)N4)cc(=O)n2c1 [Compound 764]
–,C (C denotes ≤5-fold),Cc1cc([C@H](C)Nc2ccccc2C(=O)O)c2nc(-c3ccc4c(c3)CC(=O)N4)cc(=O)n2c1 [Compound 766]
< 100,A (A denotes >20-fold),CNc1nn(C)c2ccc(-c3cc(=O)n4cc(C)cc([C@@H](C)Nc5ccccc5C(=O)O)c4n3)cc12 [Compound 767]
100 to 500,A (A denotes >20-fold),CNc1nn(C)c2ccc(-c3cc(=O)n4cc(C)cc([C@H](C)Nc5ccccc5C(=O)O)c4n3)cc12 [Compound 768]
100 to 500,A (A denotes >20-fold),Cc1cc(C(C)Nc2ccccc2C(=O)O)c2nc(-c3ccc4c(c3)c(C(F)F)nn4C)cc(=O)n2c1 (centres unmarked) [Compound 769]
< 100,A (A denotes >20-fold),Cc1cc([C@@H](C)Nc2ccccc2C(=O)O)c2nc(-c3ccc4c(c3)c(C)c(C)n4C)cc(=O)n2c1 [Compound 775]
< 100,A (A denotes >20-fold),Cc1cc([C@@H](C)Nc2ccccc2C(=O)O)c2nc(-c3ccc4c(c3)c(N)nn4C)c(C)c(=O)n2c1 [Compound 785]
